Assay results: patent US9072709B2 (The Regents of the University of California, priority 2009, dated 2015)

Key:
Swiss-Weber mice = assay: Mouse hindquarter (muscle pouch) ectopic bone formation assay, BBP alone or with rhBMP-2; format: in vivo; settings: for Bone Area / Bone Mineral Content: 21 days, mean SE
Method: The osteogenic activity of material was tested using male Swiss-Weber mice aged 8 to 10 weeks were used (Taconic Farms, Germantown, N.Y.). […] The dried material was placed in a #5 gelatin capsule and sterilized by exposure to chloroform vapor. To conduct the assay, mice were anesthetized using 1% isoflurane delivered in oxygen at 2 l/min through a small animal anesthesia machine (VetEquip, Pleasanton, Calif.). Animals were affixed to a surgery board and the fur over the hindquarters shaved. The skin was cleaned with 70% ethanol and a midline incision made over the spine adjacent to the hindquarters. Blunt dissection with scissors was used to expose the quadriceps muscle on one side. A small pouch was made in the muscle using the point of scissors and the #5 capsule containing the test material was inserted into the pouch. The skin was then closed with three 11 mm Michel surgical clips and the animal returned to its cage for monitoring.
After 21 days the animals were killed and the hindquarter removed. Radiological examination of the specimens was accomplished using a small parts X-Ray cabinet (Faxitron, Wheeling, Ill.). For quantization of bone formation, bone area and the bone mineral content (BMC) of an area of interest encompassing the site of ectopic bone formation was determined using a PIXImus2 small animal densitometer (GE Lunar, Madison, Wis.). Specimens were then placed in buffered formalin and submitted for routine processing for histological examination.

rhBMP-2 = target: T1, rhBMP-2 (Homo sapiens, UniProt P12643); assay: Surface plasmon resonance kinetic analysis (Biacore X), ligand rhBMP-2; format: binding
T1 construct: purchased R&D Systems, Minneapolis, Minn
T1 sequence (P12643 283-396): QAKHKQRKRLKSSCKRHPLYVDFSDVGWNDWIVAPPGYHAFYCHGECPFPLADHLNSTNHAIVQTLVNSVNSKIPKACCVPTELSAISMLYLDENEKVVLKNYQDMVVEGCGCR
Method: (§1) The supernatant was decanted and used for analyses. Protein concentrations were determined suing UV spectroscopy at an absorbance of 280 nm. Extinction coefficients were calculated using ProtParam tool (www.expasy.ch/tools/protparam.html). Flow rates ranged from 5 to 50 μl/min, and injection volumes were 20 to 100 μl. To ensure uniformity, an effort was made to react sufficient ligand to the chip to give a baseline value of about 2500 RU (response units). The kinetic constants ka (on rate, association constant, “recognition”) and kd (off rate, dissociation constant, “stability”) as well as the equilibrium constant KD (equilibrium constant, “affinity”) were determined by a Langmuir analysis using BIAevaluation software (version 3.2) installed on the instrument by the manufacturer.

rhOP-1 (rhBMP-7) = target: T2, rhOP-1 (rhBMP-7) (Homo sapiens, UniProt P18075); assay: Surface plasmon resonance kinetic analysis (Biacore X), ligand rhOP-1; format: binding; settings: ligand rhOP-1 (rhBMP-7)
T2 construct: purchased R&D Systems, Minneapolis, Minn
T2 sequence (P18075 293-431): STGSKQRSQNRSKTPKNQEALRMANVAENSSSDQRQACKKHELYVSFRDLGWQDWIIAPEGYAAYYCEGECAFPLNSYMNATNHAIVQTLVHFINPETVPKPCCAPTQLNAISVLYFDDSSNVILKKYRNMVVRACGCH
Method: as §1

rhTGF-β = assay: Surface plasmon resonance kinetic analysis (Biacore X), ligand rhTGF-β; format: binding, human
Method: as §1

rmGDF-5 = target: T3, rmGDF-5 (Mus musculus, UniProt P43027); assay: Surface plasmon resonance kinetic analysis (Biacore X), ligand rmGDF-5; format: binding
T3 construct: purchased R&D Systems, Minneapolis, Minn
T3 sequence (P43027 376-495): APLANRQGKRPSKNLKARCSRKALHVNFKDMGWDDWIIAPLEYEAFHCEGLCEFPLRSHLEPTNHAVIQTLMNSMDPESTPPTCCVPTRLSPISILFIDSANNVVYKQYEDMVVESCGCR
Method: The supernatant was decanted and used for analyses. […] Extinction coefficients were calculated using ProtParam tool (www.expasy.ch/tools/protparam.html). Flow rates ranged from 5 to 50 μl/min, and injection volumes were 20 to 100 μl. To ensure uniformity, an effort was made to react sufficient ligand to the chip to give a baseline value of about 2500 RU (response units).

Lewis rats = assay: Posterolateral intertransverse process spinal fusion at L4-L5 (radiographs, manual palpation, micro-CT); format: in vivo, rat; settings: ACS with 1000 μg BBP, no rhOP-1, 8 weeks
From the text: A total of 120 male Lewis rats (8 weeks of age, 200-260 g, Charles River, Wilmington, Mass.) were divided into 8 groups. Groups differed only by the materials added to the ACS (5×5×13 mm) that were applied to the surgical sites. The preparation of the implants was previously described in detail. (Alanay, et al., The adjunctive effect of a binding peptide on bone morphogenetic protein enhanced bone healing in a rodent model of spinal fusion. Spine 2008; 33:1709-13). Implanted rhOP-1 was obtained from Stryker Biotech, Hopkinton, Mass. […] Animals were sacrificed 8 weeks after surgery with CO2.
Surgical Technique. Animals were anesthetized with 2-2.5% isoflurane administered in oxygen (1 L/min) and the surgical site was shaved and disinfected with alternative betadine and 70% alcohol. Animals were premedicated with 0.15 mg buprenorphine and postoperatively received tapered doses every 12 hours for 2 days. […]
Radiographic Analysis. […] Radiographs were evaluated by 3 independent observers employing the following standardized scale: 0: no fusion; 1: incomplete fusion with bone formation present; and 2: complete fusion. […]
Manual Assessment of Fusion. Eight weeks after surgery, the spines were removed and evaluated by three blinded independent observers for intersegmental motion. […] Spines were scored as either fused or not fused. […]

[1] = BBP 50 μg implanted with 5 μg of rhBMP-2, densitometry
[2] = BBP 500 μg implanted with 5 μg of rhBMP-2, densitometry

Molecule | amount of ectopic bone formed, measured by densitometry, versus identical amount of rhBMP-2 alone (Swiss-Weber mice; 500 μg of BBP implanted with 5 μg of rhBMP-2) | histological section of mouse muscle (Swiss-Weber mice; 500 μg of BBP in atelocollagen, 21 days after implantation, H & E stain) | calcification when implanted alone with carrier (radiogram) (Swiss-Weber mice; 500 μg of BBP in atelocollagen, mouse hind quarters, 21 days after implantation) | Bone Area (Swiss-Weber mice; [1]) | Bone Mineral Content (Swiss-Weber mice; [1]) | Bone Area (Swiss-Weber mice; [2]) | Bone Mineral Content (Swiss-Weber mice; [2]) | kd “stability” (rhBMP-2; ligand rhBMP-2) | kd “stability” (rhOP-1 (rhBMP-7)) | ka “recognition” (rhTGF-β; ligand rhTGF-β) | kd “stability” (rhTGF-β; ligand rhTGF-β) | KD (kd/ka) “affinity” (rhTGF-β; ligand rhTGF-β on CM-5 chip, Langmuir analysis) | kd “stability” (rmGDF-5) | ectopic calcification in BBP only treatment groups (Lewis rats) | induction of spinal fusion by BBP by itself (Lewis rats) | ka “recognition” (rhBMP-2; ligand rhBMP-2) | KD (kd/ka) “affinity” (rhBMP-2; ligand rhBMP-2 on CM-5 chip, Langmuir analysis)
CSCC[C@@H]1NC(=O)[C@H](CCCNC(=N)N)NC(=O)[C@H](C(C)C)NC(=O)[C@H]([C@@H](C)O)NC(=O)[C@H](CO)NC(=O)[C@H](CCCNC(=N)N)NC(=O)[C@@H](N)CSSC[C@@H](C(=O)O)NC(=O)[C@H](CCCNC(=N)N)NC(=O)[C@H](C(C)C)NC(=O)[C@H](Cc2c[nH]c3ccccc23)NC(=O)[C@H](C(C)C)NC(=O)[C@H](CC(N)=O)NC(=O)[C@H](CCC(N)=O)NC(=O)[C@H](C(C)C)NC(=O)[C@H](CCC(N)=O)NC(=O)[C@H](CCC(=O)O)NC(=O)[C@H](C)NC(=O)[C@H](CO)NC1=O [BBP] | consistently greater | dystrophic calcification primarily associated with intramuscular adipose tissue | induced calcification | 0.159 ± 0.0606 cm^2 | 0.00388 ± 0.0017 g | 0.226 ± 0.0270 cm^2 | 0.00528 ± 0.00068 g | 0.00169 s⁻¹ | 0.00369 s⁻¹ | 27700 M⁻¹ s⁻¹ | 0.00175 s⁻¹ | 68 nM | 0.00352 s⁻¹ | Nor was ectopic calcification observed | did not induce any degree of fusion |  | 
spp24: parental protein of BBP, secreted phosphoprotein, 24 kD (protein) FPVYDYDPASLKEALSASVAKVNSQSLSPYLFRAFRSSVKRVNALDEDSLTMDLEFRIQETTCRRESEADPATCDFQRGYHVPVAVCRSTVRMSAEQVQNVWVRCHWSSSSGSSSSEEMFFGDILGSSTSRNSYLLGLTPDRSRGEPLYEPSREMRRNFPLGNRRYSNPWPRARVNPGFE |  |  |  |  |  |  |  | 0.0055 s⁻¹ |  |  |  |  |  |  |  | 311000 M⁻¹ s⁻¹ | 17.7 nM
